“Also recorded” adds a separate entry of the source. Square brackets hold non-standard residues; d marks the D form. Ends that are not written are not given here. Peptide text beside a SMILES is read from it. pGlu = O=C1CC[C@@H](C(=O)O)N1
Key:
[1] = Bioavailability / tissue distribution of 125I-labelled peptide in mice; assay type: in vivo, mouse
From the text: Peptide SEQ ID NO 8 was labeled with ^125I according to Greenwood and Hunter (Greenwood F C and Hunter W M. The preparation of ^125I-labelled human growth hormone of high specific radioactivity. J. Biochem., 89:114-123, 1963), with modifications [Biscayart P L, Paladini A C, Vita N, Roguin L P. Preparation of ^125I-labeled human growth hormone of high quality binding properties endowed with long-term stability. J. Immunoassay, 10, 37-56, 1989; Ribela et al., Protein Exp. Purif., 18(2):115-200, 2000). Under constant shaking, 5 μg of the synthetic SEQ ID NO 8 peptide in PBS were mixed with 1 mCi of ^125I, and 0.8 μg of chloramines T. After 5 minutes, 1 μg metabisulfite and 200 μg potassium iodine were added to finalize the labeling reaction. Purification of the labeled product was performed by reverse-phase chromatography in a disposable micro-column (Sep-Pak C18, Waters) as described by Christophe et al. [Christophe et al., The synthetic peptide trp-lys-tyr-met-val-met-NH2 specifically activates neutrophils through FPRL1/lipoxin A4 receptors and is an agonist for the orphan monocyte-expressed chemoattractant receptor FPRL2. J. Biol. Chem. 276: 21585-21593, 2001]. The reaction product was diluted in three volumes of destined water, and applied to the column that had been pre-treated with destined water. Potassium iodine (5 mM, 20 mL) was added, and the column was washed twice with 20 mL distilled water. The labeled peptide was eluted with 2 mL 100% methanol, and 5 μl aliquots were analyzed in the gamma radiation counter from Nuclear Chicago. […]
The animals were anesthetized after 1, 5, 15, 30, 45, 60, 120 and 180 min after injection, and killed by cervical dislocation, and organs (heart, spleen, liver, kidney, intestines, stomach, thyroid, testicles, and brain) were removed, flushed free of blood with 0.9% saline, and weighed. The radioactivity of each organ was determined in a gamma counter. […]
The dose percentage present in each organ was determined, using an administered dose standard. Radioactivity values were registered, given in dose percentage/mg of tissue.

[2] = test system: SK-N-AS cells (human neuroblastoma); assay: Free intracellular Ca2+ concentration in SK-N-AS cells (fluo-3 AM, confocal microscopy); assay type: cell-based
Experimental: In these experiments the variation in free intracellular calcium [Ca^2+]i concentration was measured in SK-N-AS cells (human neuroblastoma, ATCC No. CRL-2137) after addition of 1 μmolar of peptides SEQ ID NO 1 or SEQ ID NO 8, or of 1 μmolar captopril. Cells were kept in DMEM (Dulbecco Modified Medium), supplemented with 10% fetal bovine serum (FBS) and 1% non-essential amino acids, at 5% CO2 atmosphere, at 37° C., and 95% relative humidity. Cells were treated with trypsin, and replicated at adequate cell concentrations.
Measurements of variation in the concentration of free [Ca^2+]i were performed with a confocal microscope LSM 510 (Zeiss, Jena, Germany), as described by Martins et al., (Martins et al., Neuronal differentiation of P19 embryonal carcinoma cells modulates kinin B2 receptor gene expression and function. J. Biol. Chem. 280: 19576-19586, 2005). Approximately 5×10^4 SK-N-AS cells were plated on 60 mm plates 24 hours prior to measurement, and then treated with 4 μM fluo-3 AM (Invitrogen Corporation) in 0.5% DMSO and 0.1% non-ionic surfactant pluronic acid F-127 for 30 minutes at 37° C. Cells were washed with DMEM containing 10% FBS, and transferred to defined medium (5 μg/ml insulin, 30 μg/ml transferrin, 20 μM ethanolamine, 30 nM sodium selenite, 1 μM sodium pyruvate, 1% non-essential amino acids, 1 mM glutamine, 100 μg/ml penicillin, 100 μg/ml streptomycin, 10 mM HEPES pH 7.4 in DMEM). The fluorescent fluo-3 AM was excited at 488 nm, and the fluorescence measured at 526 nm.
Variations in the [Ca^2+]i were measured in non-stimulated cells, and in cells stimulated with peptides SEQ ID NO 1 or SEQ ID NO 8, or with captopril (Sigma Aldrich). Increase of fluorescence was monitored for 2 minutes, and images were acquired in 256×256 pixels every second. At the end of each experiment, 5 μM ionophore (4-Br-A23187) were added, followed by 10 mM EGTA, or 20 μM digitonin to determine maximum and minimum fluorescence, Fmax and Fmin respectively, as described by Grynkiewicz et al., (1985).
Intracellular calcium concentrations [Ca^2+]i, related to fluorescence (F) values obtained after addition of peptides SEQ ID NO 1 or SEQ ID NO 8, were calculated with the equation: [Ca^2+]=Kd(F−Fmin)/(Fmax−F), assuming Kd=450 nM for fluo-3 AM (Hallett et al., 1990).

[3] = Determination of Z-pro metabolites in mice urine; assay type: in vivo, mouse; conditions: for Metabolites in the urine: mice, 0.91 mg/Kg intraperitoneally, urine collected after 24 hours, mass spectrometry
Experimental: In vivo hydrolysis of peptides SEQ ID NO 1, SEQ ID NO 4, SEQ ID NO 5, SEQ ID NO 8, and SEQ ID NO 15 was investigated in Swiss male mice weighing approximately 22-25 g, which had free access to food and water, and were kept under a light-dark cycle of 12 hour periods.
Groups of 10 mice were treated intraperitoneally with 0.91 mg/Kg of each proline rich oligopeptide per animal, diluted in 200 μl saline. Treated and control animals (not treated) were kept in metabolic cages, and their urine was collected after 24 hours. The urine was pre-purified in a reverse phase Sep-Pak C18 micro column (Waters), which had been previously equilibrated with solvent A (H2O/0.1% TFA). Samples were eluted with 60% solvent B (90% acetonitrile/10% solvent A), lyophilized, and resuspended in 1 ml deionized water to be centrifuged at 14.000 rpm for 5 minutes. The supernatant (500 μl) was fractionated in an analytic HPLC system. The gradient was 5-65% solvent B for 30 minutes, using a flow rate of 1 ml/min and monitoring at 214 nm. Fractions were lyophilized and ressuspended in acetonitrile/H2O (1:1), containing 0.2% formic acid, and were analyzed by mass spectrometry (Q-TOF-Pro). Urine fractions from control and treated animals were compared to determine the presence of metabolites originated from the peptides being tested.

[4] = target: T1, argininosuccinate synthase (AsS) (Mus musculus, UniProt P16460); assay: Potentiation of argininosuccinate synthase activity (phosphate generated from ATP); assay type: biochemical; conditions: AsS activated by SEQ ID NO 8
T1 construct: Cytosolic and membrane fractions of the renal extract (100 mg/ml total protein) were applied to separate columns; from tissue; host or cells: Balb-c mouse kidney, cytosolic and membrane fractions
T1 sequence (P16460 1-412): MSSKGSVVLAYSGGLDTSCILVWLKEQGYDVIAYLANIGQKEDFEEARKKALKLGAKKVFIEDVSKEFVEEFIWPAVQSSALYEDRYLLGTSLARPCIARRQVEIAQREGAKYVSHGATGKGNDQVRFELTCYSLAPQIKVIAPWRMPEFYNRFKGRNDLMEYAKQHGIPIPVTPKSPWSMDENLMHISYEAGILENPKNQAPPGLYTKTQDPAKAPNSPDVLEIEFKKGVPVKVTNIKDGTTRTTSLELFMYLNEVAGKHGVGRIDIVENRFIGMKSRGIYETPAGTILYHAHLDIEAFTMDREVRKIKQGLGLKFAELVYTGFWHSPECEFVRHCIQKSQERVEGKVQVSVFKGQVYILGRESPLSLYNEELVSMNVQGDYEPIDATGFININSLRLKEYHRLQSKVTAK
Experimental: Activation of the AsS enzyme of Example 3 by peptide SEQ ID NO 8 was quantified in vitro according to Hao et al. [Hao G., Xie L., Gross S. S. Argininosuccinate synthetase is reversibly inactivated by S-nitrosylation in vitro and in vivo. J. Biol. Chem., 279:36192-36200 (2004)]. This method is based on measuring the quantity of phosphate generated from ATP, when pyrophosphatase is added to the reaction medium. Since the activity of the pyrophosphatase relates directly to the enzymatic activity of the AsS, the quantity of generated pyrophosphate is a direct measurement of the AsS activity.
The AsS enzyme (1 μg) was added to the reaction mixture containing 20 mM Tris-HCl, pH 7.8, 2 mM ATP, 2 mM citrulline, 2 mM aspartate, 6 mM MgCl2, 20 mM KCl, and 0.2 units of pyrophosphatase in a final volume of 200 μL in 96 well microplates. Increasing quantities of the SEQ ID NO 8 peptide (0.5, 1 to 8 μM) were added, and samples were incubated at 37° C. for 60 minutes. The reaction was interrupted by the addition of 200 μL of ammonium molybdate buffer (10 mM ascorbic acid, 2.5 mM ammonium molybdate, 2% sulphuric acid). Resulting phosphate was determined in the samples by spectrophotometry (absorbance at 650 nm), using a standard curve obtained with inorganic phosphate.
The production rate of phosphate (enzymatic activity of the AsS) was activated up to approximately 2.5 fold upon addition of 2 μM peptide SEQ ID NO 8. […] Accessibility of endothelial and inducible nitric oxide synthase to the intracellular citrulline-arginine regeneration pathway. Biochem. Pharmacol. 69: 97-104, 2005].

SEQ ID NO 8/^125I: synthetic oligopeptide SEQ ID NO 8 labeled with ^125I ([pGlu]NWPHPQIPP; also: 125I label, place not given here)
kidney concentration relative to other tissues per gram of tissue [1]: higher than 10 fold
share of the concentration of the injected dose remaining in the kidneys ([1]; kidney): approximately 15%
time the radioactivity remains in the kidneys ([1]; kidney): > 3 h

<EKWAP [SEQ ID NO 1]
time from the peak until the [Ca2+]i plateau [2]: 20 s
change of intracellular [Ca2+]i ([2]; 1 μM): Increase
[Ca2+]i response peak ([2]; immediately after addition of the peptide): approximately 350 nM
form in which the peptide is excreted in urine ([3]; mice injected intraperitoneally): exception
Metabolites in the urine [3]: <EKW

CC[C@H](C)[C@H](NC(=O)[C@H](CCC(N)=O)NC(=O)[C@@H]1CCCN1C(=O)[C@H](CCCNC(=N)N)NC(=O)[C@@H]1CCCN1C(=O)[C@H](Cc1c[nH]c2ccccc12)NC(=O)[C@@H]1CCC(=O)N1)C(=O)N1CCC[C@H]1C(=O)N1CCC[C@H]1C(=O)O [SEQ ID NO 5, <EWPRPQIPP]
Metabolites in the urine ([3]; 0.91 mg/kg): <EWPRPQIP; also recorded: <EWPRP; also recorded: <EWPRPQIPP

CC[C@H](C)[C@H](NC(=O)[C@@H]1CCCN1C(=O)CNC(=O)[C@H](CC(=O)O)NC(=O)[C@@H]1CCC(=O)N1)C(=O)N1CCC[C@H]1C(=O)N1CCC[C@H]1C(=O)O [SEQ ID NO 4, <EDGPIPP] ([pGlu]DGPIPP-OH)
Metabolites in the urine [3]: <EDGPIPP

CC(N)(CC(=O)O)C(=O)O (racemic) [MDLA, α-methyl-DL-aspartic acid, reference compound]
effect of the inhibitor on AsS activation by peptide SEQ ID NO 8 [4]: completely blocked; also recorded: completely inhibited

<EWGRPPGPPIPP [SEQ ID NO 14]
Metabolites in the urine [3]: <EWGRPPGPPIPP

Source: patent US20100035822A1, “PROLINE-RICH PEPTIDES, PHARMACEUTICAL COMPOSITION, USE OF ONE OR MORE PEPTIDES AND METHOD OF TREATMENT” (priority 2006, published 2010)
